Assay results published in ChEMBL document CHEMBL1201862, “PubChem BioAssay data set” (2004).
“And” between values parts separate entries of the source, which are not always exact repeats. Equal values may be shown once.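 96-well plates; 48 h exposure; 5 concentrations. Endpoints by linear interpolation between flanking doses. Not reached: highest tested concentration assigned. GI50: concentration for 50% inhibition of growth.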 The source made the active and inactive calls. Rule as the data show it: active = GI50 up to about 1.1 µM and inactive = higher.

Tests used:
Assay in all cases: growth of human tumour cells (NCI), 48 h
786-0 = system: 786-0
EKVX = system: EKVX
HCT-116 = system: HCT-116
HCT-15 = system: HCT-15
Hs-578T = system: Hs-578T
K562 = system: K562
MDA-N = system: MDA-N
Malme-3M = system: Malme-3M
NCI-H226 = system: NCI-H226
OVCAR-8 = system: OVCAR-8
PC-3 = system: PC-3
SN12C = system: SN12C
TK-10 = system: TK-10
UO-31 = system: UO-31
HOP-62 = system: HOP-62
NCI-H522 = system: NCI-H522
OVCAR-5 = system: OVCAR-5
SF-268 = system: SF-268
SNB-19 = system: SNB-19

Compound	GI50 (786-0)	GI50 (EKVX)	GI50 (HCT-116)	GI50 (HCT-15) [µM]	GI50 (Hs-578T)	GI50 (K562)	GI50 (MDA-N)	GI50 (Malme-3M)	GI50 (NCI-H226)	GI50 (OVCAR-8)	GI50 (PC-3)	GI50 (SN12C)	GI50 (TK-10)	GI50 (UO-31)	GI50 (HOP-62)	GI50 (NCI-H522)	GI50 (OVCAR-5)	GI50 (SF-268)	GI50 (SNB-19)
COc1ccc(-c2nc(SC)n(C3OC(COC(C)=O)C(OC(C)=O)C(OC(C)=O)C3OC(C)=O)c(=O)c2C#N)cc1 (configuration not stated)	64.3 µM (inactive)	> 100 µM (inactive)	> 100 µM (inactive) and 91.2 µM (inactive)	> 100	34.9 µM (inactive)	> 100 µM (inactive)	> 100 µM (inactive)	65.6 µM (inactive)	> 100 µM (inactive)	79.3 µM (inactive)	> 100 µM (inactive)	39.7 µM (inactive)	> 100 µM (inactive)	27 µM (inactive) and 25.6 µM (inactive)	–	–	–	–	–
CCCCC(=O)Nc1ccc2cc(C(=O)OC)c(=O)[nH]c2n1	> 100 µM (inactive)	> 100 µM (inactive)	> 100 µM (inactive)	> 100	–	> 100 µM (inactive)	> 100 µM (inactive)	> 100 µM (inactive)	> 100 µM (inactive)	> 100 µM (inactive)	> 100 µM (inactive)	> 100 µM (inactive)	> 100 µM (inactive)	> 100 µM (inactive)	> 100 µM (inactive)	> 100 µM (inactive)	> 100 µM (inactive)	> 100 µM (inactive)	> 100 µM (inactive)
CNCCN[C@@H]1c2cc3c(cc2[C@@H](c2cc(OC)c(O)c(OC)c2)[C@H]2C(=O)OC[C@@H]21)OCO3	0.144 µM (active)	2.23 µM (inactive)	0.432 µM (active)	3.21	–	0.177 µM (active)	1.04 µM (active)	0.288 µM (active)	0.0946 µM (active)	0.252 µM (active)	0.649 µM (active)	0.0738 µM (active)	1.49 µM (inactive)	1.32 µM (inactive)	0.141 µM (active)	0.251 µM (active)	0.966 µM (active)	0.258 µM (active)	0.291 µM (active)
CC1=NN(C(=O)CC(=O)Nc2cccc(C)c2)C(=O)C1/N=N/c1ccc(C(=O)O)cc1 (configuration not stated)	> 100 µM (inactive)	> 100 µM (inactive)	> 100 µM (inactive)	> 100	> 100 µM (inactive)	> 100 µM (inactive)	> 100 µM (inactive)	> 100 µM (inactive)	–	> 100 µM (inactive)	> 100 µM (inactive)	> 100 µM (inactive)	> 100 µM (inactive)	64.4 µM (inactive)	> 100 µM (inactive)	> 100 µM (inactive)	> 100 µM (inactive)	> 100 µM (inactive)	> 100 µM (inactive)
O=C(/C=C/c1ccc(OCc2ccccc2)c(OCc2ccccc2)c1)OCc1ccccc1	> 100 µM (inactive)	> 100 µM (inactive)	> 100 µM (inactive)	> 100	–	> 100 µM (inactive)	> 100 µM (inactive)	> 100 µM (inactive)	> 100 µM (inactive)	> 100 µM (inactive)	> 100 µM (inactive)	> 100 µM (inactive)	> 100 µM (inactive)	> 100 µM (inactive)	> 100 µM (inactive)	> 100 µM (inactive)	> 100 µM (inactive)	> 100 µM (inactive)	> 100 µM (inactive)
COc1ccc(/C(C)=N/NC(=S)N(C)C)c(O)c1	–	5.41 µM (inactive)	6.95 µM (inactive)	–	53.1 µM (inactive)	–	16 µM (inactive)	–	4.09 µM (inactive)	–	6.4 µM (inactive)	11.7 µM (inactive)	–	5.65 µM (inactive)	5.61 µM (inactive)	12.9 µM (inactive)	3.42 µM (inactive)	12 µM (inactive)	22 µM (inactive)
CCOC(=O)C1CSCCSC1	–	–	> 100 µM (inactive)	> 100	> 100 µM (inactive)	> 100 µM (inactive)	> 100 µM (inactive)	–	> 100 µM (inactive)	> 100 µM (inactive)	> 100 µM (inactive)	> 100 µM (inactive)	> 100 µM (inactive)	> 100 µM (inactive)	–	> 100 µM (inactive)	–	> 100 µM (inactive)	> 100 µM (inactive)
CC(=O)NCCC1CNc2ccccc21 (configuration not stated)	–	> 100 µM (inactive)	> 100 µM (inactive)	> 100	> 100 µM (inactive)	> 100 µM (inactive)	> 100 µM (inactive)	> 100 µM (inactive)	> 100 µM (inactive)	> 100 µM (inactive)	> 100 µM (inactive)	> 100 µM (inactive)	> 100 µM (inactive)	> 100 µM (inactive)	–	> 100 µM (inactive)	> 100 µM (inactive)	> 100 µM (inactive)	> 100 µM (inactive)
CCC(=O)NC(Nc1ccccc1F)(C(F)(F)F)C(F)(F)F	–	> 100 µM (inactive)	> 100 µM (inactive)	> 100	> 100 µM (inactive)	> 100 µM (inactive)	> 100 µM (inactive)	–	–	> 100 µM (inactive)	> 100 µM (inactive)	> 100 µM (inactive)	> 100 µM (inactive)	> 100 µM (inactive)	–	> 100 µM (inactive)	> 100 µM (inactive)	> 100 µM (inactive)	> 100 µM (inactive)
O=C1/C(=C/c2ccccc2S)N=C(c2ccccc2)N1c1nc2c(Cl)cc(Cl)cc2s1	24.3 µM (inactive)	11.6 µM (inactive)	17.7 µM (inactive)	31.1	23.7 µM (inactive)	23.5 µM (inactive)	18.1 µM (inactive)	–	–	22.2 µM (inactive)	23.9 µM (inactive)	22.3 µM (inactive)	37.1 µM (inactive)	21 µM (inactive)	16.6 µM (inactive)	–	18.7 µM (inactive)	36.3 µM (inactive)	27.8 µM (inactive)
CCCCCC/C=C\CCCCCCCCCc1c(O)c(OC)cc(O)c1CN(C)C	1.7 µM (inactive)	10.7 µM (inactive)	3.85 µM (inactive)	3.01	2.7 µM (inactive)	1.73 µM (inactive)	13 µM (inactive)	–	17 µM (inactive)	4.06 µM (inactive)	2.96 µM (inactive)	4.83 µM (inactive)	14.6 µM (inactive)	4.21 µM (inactive)	12.8 µM (inactive)	1.64 µM (inactive)	14.5 µM (inactive)	> 10 µM (inactive)	12.9 µM (inactive)
Nc1ccc(Nc2cc(=O)[nH]c(=O)[nH]2)cc1Cl	> 100 µM (inactive)	–	> 100 µM (inactive)	> 100	> 100 µM (inactive)	> 100 µM (inactive)	> 100 µM (inactive)	> 100 µM (inactive)	> 100 µM (inactive)	> 100 µM (inactive)	> 100 µM (inactive)	> 100 µM (inactive)	> 100 µM (inactive)	> 100 µM (inactive)	–	> 100 µM (inactive)	> 100 µM (inactive)	> 100 µM (inactive)	> 100 µM (inactive)
Cc1cc(N(C)C)ccc1/N=N/c1ccc2ncccc2c1	> 100 µM (inactive)	23.6 µM (inactive)	59.7 µM (inactive)	40.6	30.6 µM (inactive)	29.8 µM (inactive)	> 100 µM (inactive)	62.4 µM (inactive)	31.8 µM (inactive)	> 100 µM (inactive)	59.2 µM (inactive)	> 100 µM (inactive)	25.6 µM (inactive)	> 100 µM (inactive)	–	13.3 µM (inactive)	> 100 µM (inactive)	> 100 µM (inactive)	28.9 µM (inactive)
CCCCCc1c(CCCC)c(O)nc2nc(NC(=O)CCCC)ccc12	> 100 µM (inactive)	> 100 µM (inactive)	> 100 µM (inactive)	> 100	–	> 100 µM (inactive)	> 100 µM (inactive)	> 100 µM (inactive)	> 100 µM (inactive)	> 100 µM (inactive)	> 100 µM (inactive)	> 100 µM (inactive)	> 100 µM (inactive)	> 100 µM (inactive)	> 100 µM (inactive)	> 100 µM (inactive)	> 100 µM (inactive)	> 100 µM (inactive)	> 100 µM (inactive)
CCOC(=O)C1=CNC(C(=O)OCC)C1c1cccn1-c1ccccc1 (configuration not stated)	32.5 µM (inactive)	35.8 µM (inactive)	23.6 µM (inactive)	40.2	38.6 µM (inactive)	32.8 µM (inactive)	20 µM (inactive)	–	23.3 µM (inactive)	28.8 µM (inactive)	18.8 µM (inactive)	29.4 µM (inactive)	41.8 µM (inactive)	20.7 µM (inactive)	58.3 µM (inactive)	21.3 µM (inactive)	52.1 µM (inactive)	31.3 µM (inactive)	–
Cc1cc(C)c2c(c1)C(=O)C1(C2)Cc2c(ccc(C)c2C)C1=O (configuration not stated)	> 100 µM (inactive)	> 100 µM (inactive)	> 100 µM (inactive)	> 100	> 100 µM (inactive)	> 100 µM (inactive)	> 100 µM (inactive)	22.3 µM (inactive)	> 100 µM (inactive)	> 100 µM (inactive)	> 100 µM (inactive)	> 100 µM (inactive)	> 100 µM (inactive)	> 100 µM (inactive)	–	43.8 µM (inactive)	–	> 100 µM (inactive)	> 100 µM (inactive)
CCOP(=O)(OCC)C(Cc1ccc(Cl)cc1)NS(=O)(=O)c1ccc(C)cc1 (configuration not stated)	> 100 µM (inactive)	> 100 µM (inactive)	–	> 100	> 100 µM (inactive)	> 100 µM (inactive)	> 100 µM (inactive)	> 100 µM (inactive)	–	> 100 µM (inactive)	> 100 µM (inactive)	67.6 µM (inactive)	> 100 µM (inactive)	–	> 100 µM (inactive)	67.9 µM (inactive)	> 100 µM (inactive)	> 100 µM (inactive)	> 100 µM (inactive)
